From PMC13113287, “Synthesis and Biological Profiling of New 1,2,3,4-Tetrahydrobenzo[h]naphthyridine-Based Hybrids as Dual Inhibitors of β-Amyloid and Tau Aggregation with Anticholinesterase Activity” (Biomolecules, 2026)

Settings: reference drugs for assay validation; mean ± SD of three experiments in triplicate

With `CCn1cc(C(=O)O)c(=O)c2cc(F)c(N3CCNCC3)cc21` [Norfloxacin] the “Experimental Pe (PAMPA-BBB)” value was 0.8 ± 0.05 10^−6 cm s^−1.
For `CN1C(C(=O)Nc2ccccn2)=C(O)c2ccccc2S1(=O)=O` [Piroxicam], the “Experimental Pe (PAMPA-BBB)” value was 2.4 ± 0.07 10^−6 cm s^−1.
